From patent US20130065818A1, “Arylamide Compounds And Compositions And Uses Thereof” (POLYMEDIX, priority 2006, published 2013)
≈ marks a conversion by molar mass, not a printed value. Where two headings read alike, the source gives them in different places.

Columns and labels:
[1] = system: Staphylococcus epidermidis (Coagulase-negative Staphylococcus) fluoroquinolone-susceptible; test: MIC, 25 ocular isolates, broth microdilution (Example 8); assay type: cell-based
Procedure: (§1) • Mueller-Hinton Broth in tubes was inoculated with 25 ocular isolates of Staphylococcus aureus fluoroquinolone-susceptible, Staphylococcus aureus fluoroquinolone-resistant, Staphylococcus epidermidis (Coagulase-negative Staphylococcus) fluoroquinolone-susceptible, Staphylococcus epidermidis (Coagulase-negative Staphylococcus) fluoroquinolone-resistant, Pseudomonas aeruginosa and Serratia marcescens, plus two controls (Staphylococcus aureus and E. coli) and incubated at 37° C. overnight on a shaker set at 250 rpm.
(§2) On the day of testing, a 640 μg/ml (1280 μg/ml for Serratia marcescens and Pseudomonas aeruginosa) concentration was prepared from a 1% stock solution in 0.01% acetic acid, 0.2% BSA in polypropylene tubes.
(§3) Serial doubling dilutions in 0.01% acetic acid, 0.2% BSA in 96 well polypropylene plates, which are used as reservoirs for the inoculation of the test plates, were carried out to obtain serial dilutions of test agents at 10 times the required test concentrations: 640, 320, 160, 80, 40, 20, 10, 5, 2.5, 1.25, and 0.625 μg/ml (1280, 640, 320, 160, 80, 40, 20, 10, 5, 2.5, and 1.25 μg/ml for Serratia marcescens and Pseudomonas aeruginosa).
(§4) Ten μl of diluted 10×test agents was added to each well of one row of the 96 well polypropylene plates from column 2 to column 12 (column 1 is a control for bacteria alone, with no peptide). Test agent concentrations in columns 2-12 were as follows: 64, 32, 16, 8, 4, 2, 1, 0.5, 0.25, 0.125, and 0.0625 μg/ml (128, 64, 32, 16, 8, 4, 2, 1, 0.5, 0.25, and 0.125 μg/ml for Serratia marcescens and Pseudomonas aeruginosa). The same peptide was in each of the 8 rows. One plate contained dilutions of one test agent and 8 bacterial isolates.
(§5) On the day of testing, the overnight bacterial broth cultures of Staphylococcus aureus fluoroquinolone-susceptible, Staphylococcus aureus fluoroquinolone-resistant, Staphylococcus epidermidis (Coagulase-negative Staphylococcus) fluoroquinolone-susceptible, Staphylococcus epidermidis (Coagulase-negative Staphylococcus) fluoroquinolone-resistant, Serratia marcescens, and Pseudomonas aeruginosa, plus two controls (Staphylococcus aureus and E. coli) were diluted in 5 ml of trypticase soy broth to yield turbidity equal to a 0.5 McFarland standard. The final inoculum for MIC testing for Staphylococcus aureus fluoroquinolone-susceptible, Staphylococcus aureus fluoroquinolone-resistant, Staphylococcus epidermidis (Coagulase-negative Staphylococcus) fluoroquinolone-susceptible, Staphylococcus epidermidis (Coagulase-negative Staphylococcus) fluoroquinolone-resistant, Serratia marcescens, and Pseudomonas aeruginosa was achieved by placing 0.05 ml of the turbidity adjusted sample to 5 ml of Mueller-Hinton broth.
(§6) Ninety μl of the bacterial suspensions was dispensed in each well from column 1 to column 12. Each bacterial isolate was placed in one row of a 96 well polypropylene plate containing the test agents. The plates were placed on shaker at 15 minutes at room temperature, and then incubated at 37° C. overnight. MICs were determined visually as the lowest concentration of drug that inhibits visible bacterial growth.

[2] = system: Pseudomonas aeruginosa; test: as above; assay type: cell-based
Procedure: as §1, §2, §3, §4, §5, §6

N=C(N)NCCCCC(=O)Nc1cc(C(F)(F)F)cc(NC(=O)c2cnc(C(=O)Nc3cc(C(F)(F)F)cc(NC(=O)CCCCNC(=N)N)c3SCCN)cn2)c1SCCN [Oligomer 5]
MIC50 ([1]; 25 isolates, Row 13): 0.125 µg/mL (≈ 0.136 µM)
MIC90 ([1]; 25 isolates, Row 22): 0.25 µg/mL (≈ 0.273 µM)
Range of MICs ([1]; 25 isolates, Summary of Results, <0.0625 was Replaced with 0.03125): 0.03125 to 0.25 µg/mL
MIC ([1]; Staphylococcus epidermidis, 25 ocular isolates, read-out: Median MIC): ≤ 0.25 µg/mL
MIC ([1]; Staphylococcus epidermidis, isolate 1—E511, read-out: MIC): 0.25 µg/mL (≈ 0.273 µM)
MIC ([1]; Staphylococcus epidermidis, isolate 2—E489, read-out: MIC): 0.125 µg/mL (≈ 0.136 µM)
MIC ([1]; Staphylococcus epidermidis, isolate 3—E491, read-out: MIC): 0.125 µg/mL (≈ 0.136 µM)
MIC ([1]; Staphylococcus epidermidis, isolate 4—E476, read-out: MIC): 0.25 µg/mL (≈ 0.273 µM)
MIC ([1]; Staphylococcus epidermidis, isolate 5—E473, read-out: MIC): 0.125 µg/mL (≈ 0.136 µM)
MIC ([1]; Staphylococcus epidermidis, isolate 6—E462, read-out: MIC): 0.125 µg/mL (≈ 0.136 µM)
MIC ([1]; Staphylococcus epidermidis, isolate 7—E460, read-out: MIC): 0.125 µg/mL (≈ 0.136 µM)
MIC ([1]; Staphylococcus epidermidis, isolate 8—E453, read-out: MIC): 0.125 µg/mL (≈ 0.136 µM)
MIC ([1]; Staphylococcus epidermidis, isolate 9—E448, read-out: MIC): 0.125 µg/mL (≈ 0.136 µM)
MIC ([1]; Staphylococcus epidermidis, isolate 10—E443, read-out: MIC): < 0.0625 µg/mL
MIC ([1]; Staphylococcus epidermidis, isolate 11—E441, read-out: MIC): 0.125 µg/mL (≈ 0.136 µM)
MIC ([1]; Staphylococcus epidermidis, isolate 12—E438, read-out: MIC): 0.125 µg/mL (≈ 0.136 µM)
MIC ([1]; Staphylococcus epidermidis, isolate 13—E437, read-out: MIC): 0.125 µg/mL (≈ 0.136 µM)
MIC ([1]; Staphylococcus epidermidis, isolate 14—E434, read-out: MIC): 0.125 µg/mL (≈ 0.136 µM)
MIC ([1]; Staphylococcus epidermidis, isolate 15—E433, read-out: MIC): 0.125 µg/mL (≈ 0.136 µM)
MIC ([1]; Staphylococcus epidermidis, isolate 16—E430, read-out: MIC): 0.125 µg/mL (≈ 0.136 µM)
MIC ([1]; Staphylococcus epidermidis, isolate 17—E420, read-out: MIC): 0.125 µg/mL (≈ 0.136 µM)
MIC ([1]; Staphylococcus epidermidis, isolate 18—E419, read-out: MIC): 0.125 µg/mL (≈ 0.136 µM)
MIC ([1]; Staphylococcus epidermidis, isolate 19—E403, read-out: MIC): 0.125 µg/mL (≈ 0.136 µM)
MIC ([1]; Staphylococcus epidermidis, isolate 20—E394, read-out: MIC): 0.125 µg/mL (≈ 0.136 µM)
MIC ([1]; Staphylococcus epidermidis, isolate 21—E393, read-out: MIC): 0.125 µg/mL (≈ 0.136 µM)
MIC ([1]; Staphylococcus epidermidis, isolate 22—E328, read-out: MIC): 0.25 µg/mL (≈ 0.273 µM)
MIC ([1]; Staphylococcus epidermidis, isolate 23—E382, read-out: MIC): 0.125 µg/mL (≈ 0.136 µM)
MIC ([1]; Staphylococcus epidermidis, isolate 24—E381, read-out: MIC): 0.25 µg/mL (≈ 0.273 µM)
MIC ([1]; Staphylococcus epidermidis, isolate 25—E372, read-out: MIC): < 0.0625 µg/mL
MIC ([1]; Staphylococcus epidermidis, n=25 per group, read-out: Median MIC): 0.125 µg/mL (≈ 0.136 µM)
MIC50 ([1]; Staphylococcus epidermidis, 25 isolates, Summary of Results, read-out: MIC50): 0.125 µg/mL (≈ 0.136 µM)
MIC90 ([1]; Staphylococcus epidermidis, 25 isolates, Summary of Results, read-out: MIC90): 0.25 µg/mL (≈ 0.273 µM)
MIC ([1]; Staphylococcus epidermidis, 25 isolates, Summary of Results, read-out: Median MIC): 0.125 µg/mL (≈ 0.136 µM)
MIC50 ([1]; n=25 per group): 0.125 µg/mL (≈ 0.136 µM)
MIC90 ([1]; n=25 per group): 0.25 µg/mL (≈ 0.273 µM)
Range of MICs ([1]; n=25 per group): 0.03125 to 0.25 µg/mL
MIC50 ([2]; 25 isolates, Row 13): 64 µg/mL (≈ 69.8 µM)
Range of MICs ([2]; 25 isolates, Summary of Results, >128 was Replaced with 256): 4 to 256 µg/mL
MIC ([2]; Pseudomonas aeruginosa, 25 ocular isolates, read-out: Median MIC): 64 µg/mL (≈ 69.8 µM)
MIC ([2]; Pseudomonas aeruginosa, isolate 1—K1673, read-out: MIC): 32 µg/mL (≈ 34.9 µM)
MIC ([2]; Pseudomonas aeruginosa, isolate 2—K1668, read-out: MIC): 64 µg/mL (≈ 69.8 µM)
MIC ([2]; Pseudomonas aeruginosa, isolate 3—K1662, read-out: MIC): 64 µg/mL (≈ 69.8 µM)
MIC ([2]; Pseudomonas aeruginosa, isolate 4—K1657, read-out: MIC): 64 µg/mL (≈ 69.8 µM)
MIC ([2]; Pseudomonas aeruginosa, isolate 5—K1651, read-out: MIC): 128 µg/mL (≈ 140 µM)
MIC ([2]; Pseudomonas aeruginosa, isolate 6—K1649, read-out: MIC): 64 µg/mL (≈ 69.8 µM)
MIC ([2]; Pseudomonas aeruginosa, isolate 7—K1564, read-out: MIC): > 128 µg/mL
MIC ([2]; Pseudomonas aeruginosa, isolate 8—K1636, read-out: MIC): 4 µg/mL (≈ 4.36 µM)
MIC ([2]; Pseudomonas aeruginosa, isolate 9—K1634, read-out: MIC): 128 µg/mL (≈ 140 µM)
MIC ([2]; Pseudomonas aeruginosa, isolate 10—K1633, read-out: MIC): 64 µg/mL (≈ 69.8 µM)
MIC ([2]; Pseudomonas aeruginosa, isolate 11—K1632, read-out: MIC): 64 µg/mL (≈ 69.8 µM)
MIC ([2]; Pseudomonas aeruginosa, isolate 12—K1631, read-out: MIC): 64 µg/mL (≈ 69.8 µM)
MIC ([2]; Pseudomonas aeruginosa, isolate 13—K1629, read-out: MIC): 64 µg/mL (≈ 69.8 µM)
MIC ([2]; Pseudomonas aeruginosa, isolate 14—K1627, read-out: MIC): 64 µg/mL (≈ 69.8 µM)
MIC ([2]; Pseudomonas aeruginosa, isolate 15—K1626, read-out: MIC): 128 µg/mL (≈ 140 µM)
MIC ([2]; Pseudomonas aeruginosa, isolate 16—K1625, read-out: MIC): 64 µg/mL (≈ 69.8 µM)
MIC ([2]; Pseudomonas aeruginosa, isolate 17—K1562, read-out: MIC): 128 µg/mL (≈ 140 µM)
MIC ([2]; Pseudomonas aeruginosa, isolate 18—K1613, read-out: MIC): 32 µg/mL (≈ 34.9 µM)
MIC ([2]; Pseudomonas aeruginosa, isolate 19—K1553, read-out: MIC): 128 µg/mL (≈ 140 µM)
MIC ([2]; Pseudomonas aeruginosa, isolate 20—K1594, read-out: MIC): 64 µg/mL (≈ 69.8 µM)
MIC ([2]; Pseudomonas aeruginosa, isolate 21—K1588, read-out: MIC): 128 µg/mL (≈ 140 µM)
MIC ([2]; Pseudomonas aeruginosa, isolate 22—K1554, read-out: MIC): 128 µg/mL (≈ 140 µM)
MIC ([2]; Pseudomonas aeruginosa, isolate 23—K1580, read-out: MIC): 32 µg/mL (≈ 34.9 µM)
MIC ([2]; Pseudomonas aeruginosa, isolate 24—K1577, read-out: MIC): 64 µg/mL (≈ 69.8 µM)
MIC ([2]; Pseudomonas aeruginosa, isolate 25—K1576, read-out: MIC): 128 µg/mL (≈ 140 µM)
MIC ([2]; Pseudomonas aeruginosa, n=25 per group, read-out: Median MIC): 64 µg/mL (≈ 69.8 µM)
MIC50 ([2]; Pseudomonas aeruginosa, 25 isolates, Summary of Results, read-out: MIC50): 64 µg/mL (≈ 69.8 µM)
MIC90 ([2]; Pseudomonas aeruginosa, 25 isolates, Summary of Results, read-out: MIC90): 128 µg/mL (≈ 140 µM)
MIC ([2]; Pseudomonas aeruginosa, 25 isolates, Summary of Results, read-out: Median MIC): 64 µg/mL (≈ 69.8 µM)
MIC50 ([2]; n=25 per group): 64 µg/mL (≈ 69.8 µM)
MIC90 ([2]; n=25 per group): 128 µg/mL (≈ 140 µM)
Range of MICs ([2]; n=25 per group): 4 to 256 µg/mL
